For assay [1], the target named is T1, 6-HB formation between N36 and C34 (Human immunodeficiency virus type 1 group M subtype B, UniProt P04578).
T1 construct: purchased KareBay Biochem, Inc; host or cells: solid-phase chemical synthesis
The assay can be described thus: Inhibition of 6-HB formation, sandwich ELISA. Particulars: N36 and C34 1 μM each, triplicate. The assay is classed as biochemical, HIV-1. How it is done:
The inhibitory activity of peptides on 6-HB formation was measured by the sandwich ELISA method, as previously described. Briefly, a 96-well polystyrene plate (Costar, Corning Inc., Corning, NY) was coated with rabbit anti-gp41 (NY-364) (2 μg/mL in 0.1 M Tris, pH 8.8). […] The mixture was added to the NY-364-coated plate, followed by incubation at room temperature for 60 min and washed three times with a washing buffer (PBS containing 0.1% Tween 20). The monoclonal antibody NC-1(1 μg/mL) was added to the plate and incubated at room temperature for 60 min, followed by washing three times. Rabbit anti-mouse IgG-HRP (Sigma) (1:3000 diluted) was added to each well and incubated at 37 °C for 1 h. The substrate 3, 3’, 5, 5’-tetramethylbenzidine (TMB; Sigma) was then added sequentially. Absorbance at 450 nm was measured using an ELISA reader (Ultra 384; Tecan, Research Triangle Park, NC). The percent inhibition by the peptides and the IC50 were calculated, as previously described.
For orientation: An ELISA detects its analyte on a solid surface through an enzyme-linked reagent.

For assay [2], the system named is HIV-1 JR-CSF. Description: Therapeutic efficacy in humanized mice with established HIV-1 infection. Particulars: n = 4. It counts as in vivo, humanized NRG mice. How it is done: Humanized mice were inoculated with HIV-1 JR-CSF (10 ng p24/mouse) through retro-orbital injection and randomly assigned to 2 groups (4 mice in each group).
HIV-1 genomic RNA was purified from plasma by using the QIAamp Viral RNA Mini Kit. The RNA was reverse-transcribed and quantitatively detected by real-time PCR with the TaqMan Fast Virus 1-Step PCR kit (Thermo Fisher Scientific). We used the forward primer 5’-[…]-3’ and the reverse primer 5’-[…]-3’ to detect the HIV gag gene. […] The limit of detection of each real-time PCR was 4 copies per reaction. Accordingly, owing to the relatively small volume of plasma in mice (about 50–100 μL total blood), the limit of detection was 400 copies/mL plasma. The copy numbers below the detectable limit were set as 1. Triplicate reactions were performed for each sample.

Positions of bridges follow the written chain, without caps; N, C: chain ends. Residues, ends and D or L forms follow the SMILES beside them.

T1 sequence (P04578 546-581): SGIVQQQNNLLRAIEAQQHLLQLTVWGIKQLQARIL

Turning to `CC[C@H](C)[C@H](NC(=O)[C@H](CC(C)C)NC(=O)[C@H](CCC(=O)O)NC(=O)[C@H](CCC(=O)O)NC(=O)[C@@H](NC(=O)[C@H](CCCCN)NC(=O)[C@H](CCCCN)NC(=O)[C@@H](NC(=O)[C@H](Cc1ccc(O)cc1)NC(=O)[C@H](CCC(=O)O)NC(=O)[C@H](CCC(=O)O)NC(=O)[C@@H](NC(=O)[C@H](CCCCN)NC(=O)[C@H](CCCCN)NC(=O)[C@H](CC(=O)O)NC(=O)[C@H](Cc1c[nH]c2ccccc12)NC(=O)[C@H](CCC(=O)O)NC(=O)[C@H](CCC(=O)O)NC(=O)[C@H](Cc1c[nH]c2ccccc12)NC(=O)[C@@H](NC(=O)[C@H](CCSC)NC(=O)[C@@H](NC(=O)[C@@H]1CSSC[C@H](NC(=O)[C@@H](N)CC(=O)O)C(=O)N[C@@H](C)C(=O)N[C@@H](Cc2c[nH]c3ccccc23)C(=O)N[C@@H](Cc2c[nH]cn2)C(=O)N[C@@H](CC(C)C)C(=O)NCC(=O)N[C@@H](CCC(=O)O)C(=O)N[C@@H](CC(C)C)C(=O)N[C@@H](C(C)C)C(=O)N[C@@H](Cc2c[nH]c3ccccc23)C(=O)N1)[C@@H](C)O)[C@@H](C)O)[C@@H](C)CC)[C@@H](C)O)[C@@H](C)CC)C(=O)N[C@@H](CCCCN)C(=O)N[C@@H](CCCCN)C(=O)N[C@@H](CO)C(=O)O` [IBP-CP24] (H-DCAWHLGELVWCTMTWEEWDKKIEEYTKKIEELIKKS-OH; disulfide 2-12; N-terminus and C-terminus assumed), the “inhibition of 6-HB formation between N36 and C34” value in assay [1] is listed as “much stronger inhibition on 6-HB formation than CP24 itself”. Moreover, the “mean Δlog10 plasma HIV-1 RNA” value in assay [2] (20 mg/kg i.p. once daily for 14 days, coinjected with human IgG 40 mg/kg twice weekly) is on record as 0.13 log10. Further, the “average decrease of plasma HIV-1 RNA” value in assay [2] (day 35 post-treatment, after twice daily 20 mg/kg for 21 days plus human IgG) is 1.42 log10.

Source of the values: publication PMC6894747 (PLoS Pathogens, 2019).
